Experimental findings from ChEMBL document CHEMBL6182830, “Hepatocyte targeting via the asialoglycoprotein receptor” (RSC Med Chem, 2025) are described below.

The Kd is a measure of binding affinity in units of concentration.

This assay can be described thus: Binding affinity to human ASGR assessed as dissociation constant by SPR analysis. (In general: In SPR one partner is held on a chip, and binding of the other changes the refractive index at the surface.)
`C[C@@H]1O[C@H](CO)[C@H](O)[C@H](O)[C@H]1NC(=O)C(F)(F)F`: the Kd is 14.8 µM.
To `C=CCO[C@H]1O[C@H](CN=[N+]=[N-])[C@H](O)[C@H](O)[C@H]1NC(C)=O` belongs 1.6 µM; to `CO[C@@H]1O[C@H](CO)[C@H](O)[C@H](O)[C@H]1O`, 880 µM; to `CC(=O)N[C@@H]1[C@@H](O)[C@@H](O)[C@@H](CO)O[C@H]1O`, 40.4 µM.
With `CC(=O)N[C@H]1[C@H]2OC[C@](CO)(O2)[C@H](O)[C@@H]1O`, the Kd was 7.2 µM.
On to `COc1cccc(-n2cc(C[C@H]3O[C@H](OCC(O)CNCc4ccccc4)[C@H](NC(=O)C(F)(F)F)[C@@H](O)[C@H]3O)nn2)c1` (stereo partly drawn), for which the Kd came to 1.2 µM.
`O=C(N[C@H]1[C@H]2OC[C@](CO)(O2)[C@H](O)[C@@H]1O)C(F)(F)F`: the Kd was found to be 1.8 µM.
As for `CC(=O)N[C@@H]1[C@@H](O)[C@@H](O)[C@@H](CO)O[C@H]1C`, the figure is 41 µM.
